Measurements reported in patent US5047242A, “Azadirachtin derivative insecticides” (Native Plant Institute ("NPI"), priority 1987, dated 1991).
Values after ≈ are worked out from the molar mass of the structure shown. “Also recorded” adds a separate entry of the source.

What was measured:
[1] = tested on: Heliothis virescens; assay: Artificial diet feeding bioassay, mortality and growth inhibition in first-instar larvae; format: in vivo, Heliothis virescens (tobacco budworm); conditions: for EC50 (concentration causing 50% growth inhibition): Table 1, first-instar Heliothis virescens larvae, artificial diet, parentheses = 95% confidence limits
Source text: The results of the growth inhibitory and lethal activities of azadirachtin and these 8 derivatives when fed in an artificial diet to Heliothis virescens larvae are shown in Table 1. Similar to the results of Morgan, E. D., in "Natural pesticides from the Neem tree (Azadirachta indica A. Juss), Schmutterer, H., et al., Eds., Proc. First International Neem Conference (Rottach-Egern, 1980), German Agency for Technical Corporation,Eschborn, Germany, 1982, pps. 43-52 (hereinafter "Morgan"), neither deacetylation nor hydrogenation of the carbon-carbon double bond of the dihydrofuran ring moiety of azadirachtin had any significant effect on activity of the compound against H. virescens.
Mortality and growth inhibition in first-instar Heliothis
virescens larvae fed azadirachtin and eight derivatives in an
artificial diet (I. Kubo and J. A. Klocke, In: Plant Resistance to
Insects (P. A. Helin, Ed.), ACS Symposium Series 208, American Chemical
Society, Washington, D.C. (1983), pp. 329-346.).^a
^b LC50 values are the concentrations (ppm) causing 50%
^c EC50 values are the concentrations (ppm) causing 50% growth
^d Numbers in parentheses are the 95% confidence limits determined
using the methods of Litchfield and Wilcoxon, J. Pharmacol. Exp. Ther.
An artificial diet feeding bioassay with neonate larvae of tobacco budworm (Heliothis virescens) and fall armyworm (Spodoptera frugiperda) was used as previously described (Kubo and Klocke, 1983) to detect insecticidal activities in the plant extracts to monitor fractionation, and to determine the potency of the isolated constituents and derivatives. Potency was determined either as the effective concentration (EC50) of added material that is necessary to reduce larval growth to 50% of the control values or as the lethal concentration (LC50) of added material that is necessary to kill 50% of the treated larvae. EC50 and LC50 values were determined from log probit paper and analyzed statistically by the method of Litchfield and Wilcoxon, supra.

[2] = tested on: Heliothis virescens; assay: Relative activity of UV-irradiated compounds in inhibiting adult development of fifth-instar larvae; format: in vivo; conditions: for Relative activity, inhibition of adult development: relative to non-irradiated counterpart
Procedure: (§1) Azadirachtin, 3-deacetylazadirachtin, 22,23-dihydroazadirachtin, and 2',3',22,23-tetrahydroazadirachtin (1.0 mg/ml absolute ethanol) were placed individually in capped quartz NMR tubes (5×180 mm) and were irradiated with two UV germicidal lights (GE, G30T8, 200-280 nm, 30W) 1.8 m from the source at room temperature for up to 400 h. The controls were identical samples protected from exposure to UV radiation by wrapping with aluminum foil. At selected time intervals, aliquots from both the controls (non-irradiated) and irradiated samples were removed for high-performance liquid chromatography (HPLC) analysis and bioassay (vide infra).
(§2) Individual larvae were injected per os on the first day of the fifth instar with 1.0 μg of either irradiated or non-irradiated compounds dissolved in 1.0 μl of 75% aqueous ethanol.
Table 4: Relative activity of azadirachtin, 3deacetylaza-dirachtin,
22,23dihydroazadirachtin, 2',3',22,23tetrahydroaza-dirachtin, all of whic
had been exposed for 15, 30, 90, 200, and 400 hours to UV radiation, in
inhibiting the adult development of fifthinstar Heliothis virescens
(§3) larvae. Relative activity is defined as the percentage of larvae injected
relative to the percentage injected with its nonirradiated counterpart

[3] = tested on: Heliothis virescens; assay: Relative activity of UV-irradiated compounds in inhibiting pupal development of fifth-instar larvae; format: in vivo; conditions: for Relative activity, inhibition of pupal development: relative to non-irradiated counterpart
Procedure: as §1, §2
Table 3: Relative activity of azadirachtin, 3deacetylaza-dirachtin,
22,23dihydroazadirachtin, and 2',3',22,23tetrahydroazadirachtin, all of
which had been exposed for 15, 30, 90, 200, and 400 hours to UV radiation
inhibiting the pupal development of fifthinstar Heliothis virescens
as §3

[4] = UV stability in ethanol by reversed phase HPLC; format: physicochemical; conditions: for UV lability (in words): UV irradiation, HPLC
Procedure: Stability of Azadirachtin derivatives was determined as follows:
as §1
Analytical reversed phase HPLC was performed on a phenyl (5μm) column run isocratically with acetonitrile-water (3:7) (Yamasaki et al.) Peaks were detected at 214 nm. The irradiated samples were compared with their corresponding non-UV-irradiated controls by measuring the height of the peak eluting at the appropriate Rt for each irradiated compound relative to each one's non-irradiated control. Results are expressed as the percent of the initial sample concentration remaining relative to the control. Each time point was done in at least triplicate fashion.

[5] = tested on: Heliothis virescens; assay: Oral injection of fifth-instar larvae, pupal and adult development (non-irradiated compounds); format: in vivo; conditions: for Adults (%) / Adults Deformed (%) / Pupae (%) / Unsuccessful Larvae-Pupae (%) / Unsuccessful Pupae-Adult (%): % of larvae; for inhibition of pupation (in words): 1.0 μg per os
Procedure: as §2
Table 2: Successful and unsuccessful pupal and adult development of
fifthinstar Heliothis Virescens larvae injected orally with 1.0 microgram
of either azadirachtin, 3deacetylazadirachtin, 22,23dihydroazadirachtin,
or 2',3',22,23tetrahydroazadirachtin.

[6] = 1.0 microgram injected orally, fifth-instar, non-irradiated

Row | SMILES | EC50 (concentration causing 50% growth inhibition) [1] | Relative activity, inhibition of adult development ([2]; 15 h UV exposure) [%] | Relative activity, inhibition of adult development ([2]; 30 h UV exposure) [%] | Relative activity, inhibition of adult development ([2]; 90 h UV exposure) [%] | Relative activity, inhibition of adult development ([2]; 200 h UV exposure) [%] | Relative activity, inhibition of adult development ([2]; 400 h UV exposure) [%] | Relative activity, inhibition of pupal development ([3]; 15 h UV exposure) [%] | Relative activity, inhibition of pupal development ([3]; 30 h UV exposure) [%] | Relative activity, inhibition of pupal development ([3]; 90 h UV exposure) [%] | ability to inhibit pupation after UV (in words) ([3]; 200 h UV) | Relative activity, inhibition of pupal development ([3]; 200 h UV exposure) [%] | ability to inhibit pupation after UV (in words) ([3]; 400 h UV) | Relative activity, inhibition of pupal development ([3]; 400 h UV exposure) [%] | UV lability (in words) [4] | Number Adults [5, 6] [Number] | Number Adults Deformed [5, 6] [Number] | Unsuccessful Larvae-Pupae (number) [5, 6] [Number] | Unsuccessful Pupae-Adult (number) [5, 6] [Number] | Adults (%) ([5]; 1.0 microgram injected orally) | Adults Deformed (%) ([5]; 1.0 microgram injected orally) | also measured
1 | COC(=O)C1(O)OCC23C(O)CC(OC(C)=O)C4(C(=O)OC)COC(C42)C(O)C(C)(C24OC2(C)C2CC4OC4OCCC42O)C13 (centres unmarked) [1-detigloyl-22,23-dihydroazadirachtin] | 0.59 (0.30-1.14) ppm |  |  |  |  |  |  |  |  |  |  |  |  |  |  |  |  |  |  |  | 
2 | CCC(C)C(=O)OC1CC(OC(C)=O)C2(C(=O)OC)COC3C2C12COC(O)(C(=O)OC)C2C(C)(C12OC1(C)C1CC2OC2OCCC21O)C3O (centres unmarked) [2',3',22,23-tetrahydroazadirachtin] | 0.08 (0.05-0.13) ppm | 100.0 | 100.0 | 100.0 | 100.0 | 100.0 | 99.4 | 103.7 | 99.7 | most active in inhibiting pupation | 108.0 | some loss in activity; also recorded: still more active than the other test compounds | 69.1 | not UV-labile | 0 | 0 | 6 | 1 | 0 | 0 | ability to inhibit larvae from reaching the adult stage after UV (in words) ([2]; 400 h UV): fully active; insecticidal activity (in words) ([1]; Heliothis virescens feeding): full activity; also recorded: fully active; degradation following 200 h of exposure to UV radiation (in words) [4]: no degradation; Pupae (%) ([5]; 1.0 microgram injected orally): 7.4%; Unsuccessful Larvae-Pupae (%) ([5]; 1.0 microgram injected orally): 4.4%; Unsuccessful Pupae-Adult (%) ([5]; 1.0 microgram injected orally): 0.7%; inhibition of pupation (in words) ([5]; non-irradiated): equally effective
3 | COC(=O)C1(O)OCC23C(OC(=O)C(C)(O)C(C)O)CC(OC(C)=O)C4(C(=O)OC)COC(C42)C(O)C(C)(C24OC2(C)C2CC4OC4OCCC42O)C13 (centres unmarked) [2',3'-dihydroxy-2',3',22,23-tetrahydroazadirachtin] | 3.80 (1.95-7.41) ppm |  |  |  |  |  |  |  |  |  |  |  |  |  |  |  |  |  |  |  | 
4 | C/C=C(\C)C(=O)OC1CC(O)C2(C(=O)OC)COC3C2C12COC(O)(C(=O)OC)C2C(C)(C12OC1(C)C1CC2OC2OC=CC21O)C3O (centres unmarked) [3-deacetylazadirachtin] | 0.09 (0.05-0.17) ppm | 103.2 | 106.3 | 106.3 | 96.0 | 72.3 | 115.2 | 135.0 | 139.5 | did decline | 86.8 | even greater decline | 41.0 | UV-labile | 10 | 10 | 13 | 4 | 5.9 | 5.9 | ability to inhibit larvae from reaching the adult stage after UV (in words) ([2]; 200 h UV): remained substantially unchanged until 400 h of irradiation; activity retained after 90 h of exposure to UV radiation (in words) ([3]; 90 h UV): retained full activity; activity retained after 400 h of exposure to UV radiation ([3]; 400 h UV): approximately 50%; ability to inhibit pupation after UV (in words) ([3]; up to 90 h UV): not appreciably reduced; degradation following 400 h of exposure to UV radiation (in words) [4]: none of the three compounds remained in their original state; kinetics of UV degradation (in words) [4]: first-order reaction; Number Pupae [5, 6]: 56 Number; Pupae (%) ([5]; 1.0 microgram injected orally): 33.1%; Unsuccessful Larvae-Pupae (%) ([5]; 1.0 microgram injected orally): 7.7%; Unsuccessful Pupae-Adult (%) ([5]; 1.0 microgram injected orally): 2.4%; inhibition of pupation (in words) ([5]; non-irradiated): less effective
5 | C/C=C(\C)C(=O)OC1CC(OC(C)=O)C2(C(=O)OC)COC3C2C12COC(OC(=O)OC)(C(=O)OC)C2C(C)(C12OC1(C)C1CC2OC2OCCC21OC(=O)OC)C3O (centres unmarked) [11,20-O, O-dicarbomethoxy-22,23-dihydroazadirachtin] | 29.0 (20.3-41.5) ppm |  |  |  |  |  |  |  |  |  |  |  |  |  |  |  |  |  |  |  | LC50 ([1]; Heliothis virescens, po, read-out: LC50 (concentration causing 50% mortality)): 90 µg/mL (≈ 107 µM)
